Assay results taken from patent US9227919B2, “Arylalkylamine compounds as calcium sensing receptor modulators” (Lupin Limited, priority 2012, dated 2016).
Where a name gives a salt, the structure may show the parent alone.

target: T1, Calcium Sensing Receptor (CaSR) (Homo sapiens, UniProt P41180); assay: In-vitro assay of calcimimetics through modulation of Calcium Sensing Receptor (intracellular calcium increase, FLIPR); format: cell-based; conditions: stably transfected HEK293 cells expressing hCaSR; Fluo4NW dye; 0.3 mM CaCl2; 8-point assay; read-out: EC50 Range
T1 construct: expressed in transfected cells
T1 sequence (P41180 20-1078): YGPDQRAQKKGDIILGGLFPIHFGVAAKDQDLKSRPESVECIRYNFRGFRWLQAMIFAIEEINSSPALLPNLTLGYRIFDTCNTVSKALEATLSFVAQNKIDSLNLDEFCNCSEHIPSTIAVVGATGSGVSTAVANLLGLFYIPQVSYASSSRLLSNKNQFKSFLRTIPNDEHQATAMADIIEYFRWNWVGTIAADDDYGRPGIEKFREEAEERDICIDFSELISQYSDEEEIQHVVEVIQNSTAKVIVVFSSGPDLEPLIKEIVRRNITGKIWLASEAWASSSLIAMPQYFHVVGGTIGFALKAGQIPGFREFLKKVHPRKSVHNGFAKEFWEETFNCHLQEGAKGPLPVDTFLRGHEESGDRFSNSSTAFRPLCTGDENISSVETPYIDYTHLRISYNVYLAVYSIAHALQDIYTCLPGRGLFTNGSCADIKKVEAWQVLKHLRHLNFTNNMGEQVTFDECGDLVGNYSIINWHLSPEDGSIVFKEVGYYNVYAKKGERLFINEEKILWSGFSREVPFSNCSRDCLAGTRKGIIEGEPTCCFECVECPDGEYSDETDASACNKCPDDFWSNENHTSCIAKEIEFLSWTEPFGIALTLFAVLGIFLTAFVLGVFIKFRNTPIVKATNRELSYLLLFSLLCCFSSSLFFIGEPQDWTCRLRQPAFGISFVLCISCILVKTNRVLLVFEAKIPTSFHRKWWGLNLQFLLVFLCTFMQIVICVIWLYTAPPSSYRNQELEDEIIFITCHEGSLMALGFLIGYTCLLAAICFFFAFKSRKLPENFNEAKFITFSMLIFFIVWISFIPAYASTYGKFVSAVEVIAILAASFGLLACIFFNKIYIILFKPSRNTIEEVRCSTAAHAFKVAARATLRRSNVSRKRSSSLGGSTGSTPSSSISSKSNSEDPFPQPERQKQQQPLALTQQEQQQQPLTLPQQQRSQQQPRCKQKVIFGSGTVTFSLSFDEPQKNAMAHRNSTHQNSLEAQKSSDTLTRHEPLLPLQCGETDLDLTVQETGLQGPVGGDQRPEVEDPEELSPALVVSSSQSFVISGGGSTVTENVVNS
Experimental: Certain illustrative compounds within the scope of the invention are screened for CaSR activity according to the procedure given below. The screening of the compounds may also be carried by other methods and procedures known to skilled in the art.
In-vitro assay method of Calcimimetics through modulation of Calcium Sensing Receptor (CaSR):
The ability of the compounds to modulate Calcium sensing receptor is determined by measuring an increase in intracellular calcium [Ca^2+]i. Stably transfected HEK293 cells expressing hCaSR_pTriEx-3 hygro vector are developed. Cells are grown overnight on a 96-well plate to 80% confluency in Ham's F12 containing 20% FBS at 37° C., 5% CO2. Subsequently, cells are washed extensively with 20 mM HEPES buffer containing 126 mM […], 1 mM MgCl2 and 4 mM KCl to remove serum components that might interfere with the assay. Cells are loaded with calcium sensing Fluo4NW dye in HEPES base buffer containing 0.1% BSA and lmg/ml glucose for 30 minutes to measure changes in intracellular calcium. The activities of the compounds are measured in FLIPR using 0.3 mM CaCl2 in 20 mM HEPES base buffer. The effectiveness of the compound to modulate receptor activity is determined by calculating the EC50 responses for that compound in an 8-point assay and plotted using GraphPad Prism 5.
The compounds prepared were tested using the above assay procedure and the results obtained are given below.

| Compound | EC50 [nM] |
| --- | --- |
| C[C@@H](NCC1Cc2ccccc2C(c2cccc(C(=O)O)c2)C1)c1cccc2ccccc12 (single isomer, unassigned) [Example 2a, hydrochloride] | < 20 |
| COc1cc([C@@H](C)NC[C@@H]2Cc3ccccc3C(c3ccc(C)c(C(=O)O)c3)C2)ccc1F (single isomer, unassigned) [Example 16a, hydrochloride] | < 20 |
| COc1cc([C@@H](C)NC[C@@H]2Cc3ccccc3C(c3ccc(C)c(C(=O)O)c3)C2)ccc1F (single isomer, unassigned) [Example 16b, hydrochloride] | 20 to 50 |
| Cc1ccc(C2C[C@H](CCN[C@H](C)c3ccc(F)c4ccccc34)Cc3ccccc32)cc1C(=O)O (stereo partly drawn) [Example 25, 5-((3S)-3-(2-(((R)-1-(4-Fluoronaphthalen-1-yl)ethyl)amino)ethyl)-1,2,3,4-tetrahydronaphthalen-1-yl)-2-methylbenzoic acid hydrochloride] | 20 to 50 |
| Cc1cc(C2C[C@H](CN[C@H](C)c3cccc4ccccc34)Cc3ccccc32)ccc1C(=O)O (single isomer, unassigned) [Example 13b, hydrochloride] | < 20 |
| Cc1ccc(N2CC(CN[C@H](C)c3ccc(F)c4ccccc34)Cc3ccccc32)cc1C(=O)O (single isomer, unassigned) [Example 72b, hydrochloride] | 20 to 50 |
| C[C@@H](NCC1Cc2ccccc2C(c2ccc(F)c(C(=O)O)c2)C1)c1cccc2ccccc12 (single isomer, unassigned) [Example 7a, hydrochloride] | < 20 |
| Cc1ccc(C2C[C@H](CCN[C@H](C)c3cccc4ccccc34)Cc3ccccc32)cc1C(=O)O (single isomer, unassigned) [Example 27a, hydrochloride] | < 20 |
| Cc1ccc(C2CC(CN[C@H](C)c3cccc4ccccc34)Cc3ccccc32)cc1C(=O)O (single isomer, unassigned) [Example 8a, hydrochloride] | < 20 |
| Cc1ccc(N2CC(CCCN[C@H](C)c3cccc4ccccc34)Cc3ccccc32)cc1C(=O)O (single isomer, unassigned) [Example 78b, hydrochloride] | < 20 |
| Cc1ccc(N2CC(CCN[C@H](C)c3cccc4ccccc34)Cc3ccccc32)cc1OCC(=O)O (single isomer, unassigned) [Example 77b, hydrochloride] | < 20 |
| C[C@@H](NCC1Cc2ccccc2C(c2cccc(C(=O)O)c2)C1)c1cccc2ccccc12 (single isomer, unassigned) [Example 2b, hydrochloride] | 50 to 200 |
| C[C@@H](NCC1Cc2ccccc2C(c2ccc(F)c(C(=O)O)c2)C1)c1cccc2ccccc12 (single isomer, unassigned) [Example 7c, hydrochloride] | 20 to 50 |
| Cc1ccc(C2CC(CN[C@H](C)c3cccc4ccccc34)Cc3ccccc32)cc1C(=O)O (single isomer, unassigned) [Example 8d, hydrochloride] | 20 to 50 |
| Cc1cc(C2C[C@H](CN[C@H](C)c3cccc4ccccc34)Cc3ccccc32)ccc1C(=O)O (single isomer, unassigned) [Example 13a, hydrochloride] | 20 to 50 |
| Cc1ccc(N2CC(CCN[C@H](C)c3cccc4ccccc34)Cc3ccccc32)cc1C(=O)O (single isomer, unassigned) [Example 76b, hydrochloride] | 20 to 50 |
| COc1cc([C@@H](C)NC[C@@H]2Cc3ccccc3C(c3ccc(C)c(C(=O)O)c3C)C2)ccc1F (stereo partly drawn) [Example 17, 3-((3S)-3-((((R)-1-(4-Fluoro-3-methoxyphenyl)ethyl)amino)methyl)-1,2,3,4-tetrahydronaphthalen-1-yl)-2,6-dimethylbenzoic acid hydrochloride] | < 20 |
| Cc1ccc(C2CC(CN[C@H](C)c3cccc4ccccc34)Cc3ccccc32)cc1C(=O)O (single isomer, unassigned) [Example 8b, hydrochloride] | < 20 |
| Cc1ccc(C2CC(CN[C@H](C)c3cccc4ccccc34)Cc3ccccc32)c(C)c1C(=O)O (single isomer, unassigned) [Example 10a, hydrochloride] | < 20 |
| Cc1ccc(C(=O)O)cc1C1C[C@H](CN[C@H](C)c2cccc3ccccc23)Cc2ccccc21 (single isomer, unassigned) [Example 14a, hydrochloride] | 50 to 200 |
| Cc1ccc(C2C[C@H](CN[C@H](C)c3ccc(F)c4ccccc34)Cc3ccccc32)cc1C(=O)O (single isomer, unassigned) [Example 19b, hydrochloride] | 20 to 50 |

Other lines, results leading:

| EC50 [nM] | Compound |
| --- | --- |
| < 20 | Cc1ccc(N2CC(CN[C@H](C)c3cccc4ccccc34)Cc3cc(F)ccc32)cc1C(=O)O (single isomer, unassigned) [Example 75a, hydrochloride] |
| < 20 | C[C@@H](NCC1Cc2ccccc2C(c2ccc(F)c(C(=O)O)c2)C1)c1cccc2ccccc12 (single isomer, unassigned) [Example 7b, hydrochloride] |
| < 20 | COc1cc([C@@H](C)NCC2Cc3ccccc3N(c3ccc(C)c(C(=O)O)c3)C2)ccc1F (single isomer, unassigned) [Example 73a, hydrochloride] |
| < 20 | Cc1ccc(C2C[C@@H](CCCN[C@H](C)c3cccc4ccccc34)Cc3ccccc32)cc1C(=O)O (stereo partly drawn) [Example 31, 2-Methyl-5-((3R)-3-(3-(((R)-1-(naphthalen-1-yl)ethyl)amino)propyl)-1,2,3,4-tetrahydronaphthalen-1-yl)benzoic acid hydrochloride] |
| 20 to 50 | Cc1cc(C(=O)O)cc(C2CC(CN[C@H](C)c3cccc4ccccc34)Cc3ccccc32)c1 (single isomer, unassigned) [Example 9b, hydrochloride] |
| < 20 | Cc1ccc(C2C[C@H](CCCN[C@H](C)c3ccc(F)c4ccccc34)Cc3ccccc32)cc1C(=O)O (stereo partly drawn) [Example 29, 5-((3S)-3-(3-(((R)-1-(4-fluoronaphthalen-1-yl)ethyl)amino)propyl)-1,2,3,4-tetrahydronaphthalen-1-yl)-2-methylbenzoic acid hydrochloride] |
| 50 to 200 | Cc1ccc(C(=O)O)cc1N1CC(CN[C@H](C)c2cccc3ccccc23)Cc2ccccc21 (single isomer, unassigned) [Example 70b, hydrochloride] |
| < 20 | Cc1ccc(N2C[C@@H](CN[C@H](C)c3cccc4ccccc34)Cc3ccccc32)cc1C(=O)O [Example 69a, 2-Methyl-5-(3-((((R)-1-(naphthalen-1-yl)ethyl)amino)methyl)-3,4-dihydroquinolin-1(2H)-yl)benzoic acid hydrochloride] |
| 20 to 50 | Cc1ccc(N2CC(CCCN[C@H](C)c3cccc4ccccc34)Cc3ccccc32)cc1OCC(=O)O (single isomer, unassigned) [Example 80b, hydrochloride] |
| 20 to 50 | Cc1cc(C2CC(N[C@H](C)c3cccc4ccccc34)Cc3ccccc32)ccc1C(=O)O (stereo partly drawn) [Example 23, 2-Methyl-4-(3-(((R)-1-(naphthalen-1-yl)ethyl)amino)-1,2,3,4-tetrahydronaphthalen-1-yl)benzoic acid hydrochloride] |
| < 20 | Cc1ccc(C2C[C@H](CN[C@H](C)c3ccc(F)c4ccccc34)Cc3ccccc32)cc1C(=O)O (single isomer, unassigned) [Example 19a, hydrochloride] |
| 20 to 50 | C[C@@H](NCC1Cc2ccccc2C(c2cccc(C(=O)O)c2)C1)c1cccc2ccccc12 (single isomer, unassigned) [Example 2c, hydrochloride] |
| < 20 | Cc1c(C(=O)O)cccc1N1CC(CCCN[C@H](C)c2ccc(F)c3ccccc23)Cc2ccccc21 (single isomer, unassigned) [Example 79a, hydrochloride] |
